{"source": "patent US20220054485A1", "about": "“METHODS OF TREATING RIGHT VENTRICULAR FUNCTION IN PULMONARY HYPERTENSION” (REGENTS OF THE UNIVERSITY OF MINNESOTA, priority 2020, published 2022)", "key": {"[1]": {"test_system": "MCT rats", "details": "cited from earlier work"}, "[2]": {"test_system": "H9c2 cardiomyocytes", "assay": "Seahorse mitochondrial respiration in H9c2 cardiomyocytes", "format": "cell-based, rat", "details": "20 μM paclitaxel overnight", "description": "Cell culture and mitochondrial respiration measurements: H9c2 (ATCC CRL-1446) rat cardiomyocytes were maintained in Dulbecco's Modified Eagle's Medium (DMEM) (Thermo Scientific) supplemented with 10% fetal bovine serum (FBS) (Foundation, Gemini Bio-Products, West Sacramento, Calif.), 100 U/ml penicillin, and 100 μg/ml streptomycin (Invitrogen, Carlsbad, Calif.) at 37° C. with 5% CO2. Cells were passaged with Accutase (BioLegend, San Diego, Calif.). Differentiation was induced by changing to differentiation medium which had 2% horse serum (Equitech-Bio, Kerrville, Tex.), in place of FBS. Ten thousand cells were plated per Agilent Seahorse XFp dish pretreated with 0.1% gelatin (Sigma-Aldrich, St. Louis, Mo.). Five days after initial plating, cells were treated with differentiation media supplemented with 20 μM paclitaxel in DMSO (Sigma-Aldrich) overnight. The following day and one hour before the assay, cell media was changed to Seahorse DMEM assay media and supplemented with 5 mM glucose, 4 mM glutamine, and 1 mM pyruvate (Agilent, Santa Clara, Calif.). Oxygen consumption rate (OCR) was measured with an Agilent Seahorse XFp Extracellular Flux analyzer using the Agilent XFp Cell Mito Stress Test Kit with oligomycin A (final concentration after injection 1.5 μM), carbonyl cyanide 4-(trifluoromethoxy)phenylhydrazone (FCCP at 2 μM), and […] rotenone/actimycin. After the assay, cells were lysed in 50 μl of 1× Laemmli sample buffer supplemented with HALT protease and phosphatase inhibitor cocktail (Thermo Fisher). Cell lysates were electrophoresed on SDS-PAGE gels and stained with CBB per above to estimate total protein per sample. Raw Seahorse measurements were normalized to total protein and analyzed using Agilent Wave software."}, "[3]": {"test_system": "adult cardiomyocytes", "assay": "IL6 incubation of isolated adult cardiomyocytes (microtubules, JPH2, t-tubules)", "format": "cell-based", "details": "IL6 10 ng/mL", "description": "To examine the direct effects of IL6 on the MT-JPH2 pathway, adult cardiomyocytes were incubated with IL6 (10 ng/mL) and then it was quantified how MT, JPH2, and t-tubules were affected. IL6 increased MT density as determined by quantitative immunofluorescence (16.0±0.9 vs 20.4±0.7 fluorescence intensity/μm^2, p<0.001) (FIGS. 4A and 4B). The altered MT structure disrupted JPH2 localization marked by loss of t-tubule enrichment (TT score: 65.6±2.5 vs 59.6±1.6, p=0.04) (FIGS. 4C and 4D). Finally, IL6 caused t-tubule remodeling with loss of t-tubule regularity (TT score: 59.9±1.9 vs 51.9±1.5, p=0.003) (FIGS. 4E and 4F).\nDetermination of how IL6 alters the microtubule-JPH2-t-tubule pathway in isolated cardiomyocytes: Right ventricular cardiomyocytes are isolated using the Langendorf retrograde perfusion protocol. Cardiomyocytes are incubated for 24, 48, and 72 hours with either phosphate buffered saline (PBS), IL6 (10 ng/mL), IL6 (10 ng/mL) plus the STAT3 inhibitor Stattic (2 μM), or IL6 (10 ng/mL) plus colchicine (10 μM). Then Western blot analysis and confocal microscopy is used to examine microtubule density, JPH2 protein levels and localization, and t-tubule morphology. JPH2 localization patterns and t-tubule remodeling are quantified using the TTPower plug-in in FIJI."}, "[4]": {"molecular_target": "T1, IL-6 receptor (Homo sapiens, UniProt P08887)", "T1 construct": "host or cells: PAH patients (clinical trial run by others)", "T1 sequence (P08887 20-468)": "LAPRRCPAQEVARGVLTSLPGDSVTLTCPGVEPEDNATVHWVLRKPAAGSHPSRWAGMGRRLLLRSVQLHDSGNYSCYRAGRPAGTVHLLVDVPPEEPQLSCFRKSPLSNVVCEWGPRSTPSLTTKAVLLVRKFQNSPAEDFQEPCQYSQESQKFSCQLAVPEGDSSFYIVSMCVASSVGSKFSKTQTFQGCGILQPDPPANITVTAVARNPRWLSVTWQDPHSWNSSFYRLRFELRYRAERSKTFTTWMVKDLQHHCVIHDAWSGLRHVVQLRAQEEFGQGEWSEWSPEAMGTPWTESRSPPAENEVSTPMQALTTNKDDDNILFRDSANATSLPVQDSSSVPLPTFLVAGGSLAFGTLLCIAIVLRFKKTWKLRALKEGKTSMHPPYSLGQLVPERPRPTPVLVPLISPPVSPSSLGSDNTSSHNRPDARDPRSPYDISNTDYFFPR", "details": "PAH patients, vs control group; cited from earlier work"}, "[5]": {"details": "therapy started one week after MCT"}}, "note": "“Also recorded” adds a separate entry of the source. Where two headings read alike, the source gives them in different places.", "data": [{"compound": "C[C@]12CCC(OC=O)CC1CC[C@@H]1[C@@H]2CC[C@]2(C)C(C34C=CC(=O)OC3O4)CC3O[C@]312", "note": "(stereo partly shown) [20S,21-epoxy-resibufogenin-3-formate]", "values": [{"measurement": "mPAP", "setting": "[1]; [5]", "value": "lowered mPAP"}, {"measurement": "pulmonary vascular remodeling", "setting": "[1]; [5]", "value": "attenuated adverse pulmonary vascular remodeling"}]}, {"compound": "CC(=O)O[C@H]1C(=O)[C@@]2(C)[C@H]([C@H](OC(=O)c3ccccc3)[C@]3(O)C[C@H](OC(=O)[C@H](O)[C@@H](NC(=O)c4ccccc4)c4ccccc4)C(C)=C1C3(C)C)[C@]1(OC(C)=O)CO[C@@H]1C[C@@H]2O", "note": "[Paclitaxel, paclitaxel]", "values": [{"measurement": "ATP production", "setting": "[2]", "value": "reduced"}, {"measurement": "coupling efficiency", "setting": "[2]", "value": "reduced"}, {"measurement": "maximal respiration", "setting": "[2]", "value": "reduced"}, {"measurement": "proton leak", "setting": "[2]", "value": "enhanced"}, {"measurement": "spare capacity", "setting": "[2]", "value": "reduced"}]}, {"compound": "COc1cc2c(c(OC)c1OC)-c1ccc(OC)c(=O)cc1[C@@H](NC(C)=O)CC2", "note": "[colchicine]", "values": [{"measurement": "JPH2 expression", "setting": "[1]; RV, listed as Colchicine", "value": "increases JPH2 expression"}, {"measurement": "t-tubule architecture", "setting": "[1]; RV, listed as Colchicine", "value": "corrects t-tubule architecture"}, {"measurement": "JPH2 expression", "setting": "[1]; RV", "value": "increases JPH2 levels; also recorded: increases JPH2 expression"}, {"measurement": "microtubule density", "setting": "[1]; RV", "value": "reduces microtubule density"}, {"measurement": "t-tubule architecture", "setting": "[1]; RV", "value": "combats pathological t-tubule remodeling"}, {"measurement": "RV function / contractility", "setting": "[1]", "value": "augments RV function"}, {"measurement": "exercise capacity", "setting": "[1]", "value": "enhances exercise capacity"}, {"measurement": "RV function / contractility", "setting": "[1]; listed as Colchicine", "value": "improves RV function"}]}, {"compound": "CCCc1nn(C)c2c(=O)[nH]c(-c3cc(S(=O)(=O)N4CCN(C)CC4)ccc3OCC)nc12", "note": "[sildenafil]", "values": [{"measurement": "JPH2 expression", "setting": "[1]; RV", "value": "restores RV JPH2 expression"}, {"measurement": "t-tubule architecture", "setting": "[1]; RV", "value": "restores RV JPH2 expression and t-tubule architecture"}, {"measurement": "RV function / contractility", "setting": "[1]", "value": "improves RV contractility"}]}, {"compound": "IL6: inflammatory cytokine that binds to the cell membrane proteins IL6 receptor and GP130", "values": [{"measurement": "JPH2 t-tubule enrichment (TT score)", "setting": "[3]", "value": "59.6±1.6"}, {"measurement": "MT density by quantitative immunofluorescence", "setting": "[3]", "value": "20.4±0.7 fluorescence intensity/μm^2"}, {"measurement": "t-tubule regularity (TT score)", "setting": "[3]", "value": "51.9±1.5"}]}, {"compound": "tocilizumab: a monoclonal antibody that antagonizes the IL-6 receptor", "values": [{"measurement": "PVR", "setting": "[4]", "value": "not different between the tocilizumab and control groups; also recorded: does not alter PVR"}]}]}
